Test results taken from publication PMC9315496, “A Comparison of the Photophysical, Electrochemical and Cytotoxic Properties of meso-(2-, 3- and 4-Pyridyl)-BODIPYs and Their Derivatives” (Sensors (Basel, Switzerland), 2022).
Where two headings read alike, the source gives them in different places. Marks after values point to notes of the source that are not given here.

Columns and labels:
[1] = UV-vis absorption and emission spectroscopy, relative fluorescence quantum yields; type: physicochemical; conditions: for λabs / λem: room temperature; for Φf (relative fluorescence quantum yield): standard Ru(bpy)Cl2.6H2O (Φf = 0.028) in H2O, λexc = 436 nm; for bathochromic shift of maximum absorption wavelength upon methylation: experimental
Method: UV−vis absorption spectra were collected on a Varian Cary 50 Bio spectrophotometer. Emission spectra were obtained on a PerkinElmer LS55 spectrophotometer, at room temperature. Spectrophotometric grade solvents and quartz cuvettes (1 cm path length) were used. Relative fluorescence quantum yields (Φf) were calculated using rhodamine 6G (Φf = 0.86 in methanol) as reference for the neutral BODIPYs and Ru(bpy)Cl2.6H2O (Φf = 0.028 in water) as the standard for the cationic BODIPYs using the following equation: Φx = Φst × Gradx/Gradst × (ηx/ηst)^2, where the ΦX and ΦST are the quantum yields of the sample and standard, GradX and GradST are the gradients from the plot of integrated fluorescence intensity vs. absorbance, and η represents the refractive index of the solvent (x is for the sample and st for the standard).

Cyclic voltammetry = type: physicochemical
Text: Cyclic voltammograms were collected on a Biologic SP-300 potentiostat using a three-electrode setup with a platinum working electrode (2 mm diameter, CH Instruments), platinum counter electrode (2 mm diameter, CH Instruments), and a silver wire pseudo reference-electrode stored in 0.25 M NBu4PF6 in anhydrous acetonitrile and separated from the electrochemical cell by a glass frit. The electrochemical cell was composed of a borosilicate glass scintillation vial with a custom-machined cap. Working electrodes were polished and then pre-treated by cycling between upper and lower boundaries of the electrochemical window for the experiment in a solution containing only the electrolyte. Measurements were taken in a solution of 0.25 M recrystallized NBu4PF6 in dried and degassed anhydrous acetonitrile. BODIPYs were added to 5 mL of electrolyte solution to give a concentration of 1 mM. Each solution also contained 1 mM ferrocene as an internal reference. Solutions were sparged with N2 before each measurement.

HEp2 cells [2] = test: Dark cytotoxicity, Cell Titer Blue; type: cell-based; conditions: Homo sapiens, HEp-2, 24 h incubation, read-out: Dark Toxicity (IC50)
Method: (§1) Human carcinoma HEp2 cells were obtained from ATCC and maintained in a 75 cm^2 flask (Chemglass) with 1× MEM (Eagle’s minimal essential medium) containing 10% FBS (fetal bovine serum) and 1% antibiotic (penicillin–streptomycin) in a humidified, 5% CO2 incubator at 37 °C. Stock solutions with a concentration of 32 mM in DMSO were prepared for each BODIPY. The stock solution was diluted to the final working concentrations with culture medium. The HEp2 cells were plated at 7500–10,000 cells per well in a Costar 96-well plate and allowed to grow for 24 h. The BODIPY stock solution was diluted to a 200 μM working solution and two-fold serial dilutions were prepared with final concentrations of 200, 100, 50, 25, 12.5, 6.25, and 0 μM. Each BODIPY was incubated for 24 h at 37 °C under 5% CO2. For the dark cytotoxicity experiments, after incubation, excess BODIPY was removed by washing the cells three times with 1× PBS (phosphate-buffered saline) and replacing with media containing 20% Cell Titer Blue (Promega, Madison, WI, USA). The cells were then incubated for additional 24 h at 37 °C under 5% CO2 and the cell toxicity was determined by fluorescence intensity at ex 570/em 615 nm using a FluoStar Optima microplate reader (BMG Labtech, Cary, NC, USA).

HEp2 cells [3] = test: Phototoxicity (1.5 J/cm^2), Cell Titer Blue; type: cell-based; conditions: Homo sapiens, HEp-2, light or radiation study, light dose 1.5 J/cm^2
Method: as §1
For the phototoxicity experiments, after incubation the cells were exposed to a light dose of ~1.5 J/cm^2 generated using a 600 W Quartz Tungsten Halogen lamp (Newport Corporation, Irvine, CA, USA). The cells were exposed for 20 min while the 96-well plate rested on an EchoTherm chilling plate (Torrey Pines Scientific, Carlsbad, CA, USA) set to 5 °C. Following light exposure, the loading media was removed and media containing 20% Cell Titer Blue was added. After incubation for 24 h at 37 °C under 5% CO2, the cell viability was determined as described above.

[4] = cited from earlier work
[5] = vs. Fc^+/Fc, 100 mV/s, acetonitrile, 0.25 M NBu4PF6
[6] = vs. Fc^+/Fc, 100 mV/s, acetonitrile, 0.25 M NBu4PF6, PF6^− counterion

SMILES	Stokes Shift ([1]; CH3CN)	ε (molar extinction coefficient) ([1]; CH3CN)	λabs ([1]; CH3CN)	λem ([1]; CH3CN)	Φf (relative fluorescence quantum yield) ([1]; CH3CN)	Stokes Shift ([1]; H2O)	ε (molar extinction coefficient) ([1]; H2O)	λabs ([1]; H2O)	λem ([1]; H2O)	Φf (relative fluorescence quantum yield) ([1]; H2O)	fluorescence enhancement relative to the non-chlorinated pyridinium BODIPY ([1]; water)	first reduction wave shift positive compared with the unchlorinated BODIPY (Cyclic voltammetry)	second reduction wave shift positive compared with the unchlorinated BODIPY (Cyclic voltammetry)	anodic peak shift positive compared with the corresponding unchlorinated BODIPY (Cyclic voltammetry; 100 mV/s)	E1/2red, first one-electron reduction (Cyclic voltammetry; [5])	E1/2red, second one-electron reduction (Cyclic voltammetry; [5])	IC50 (HEp2 cells [2])	IC50 (HEp2 cells [3])	bathochromic shift of maximum absorption wavelength upon methylation ([1]; acetonitrile)	E1/2ox (Cyclic voltammetry; [6])	also measured
CC1=C(Cl)C(C)=[N+]2C1=C(c1cccc[n+]1C)c1c(C)c(Cl)c(C)n1[B-]2(F)F [2catPyCl2, 2,6-Dichloro-8-(N-methyl-2-pyridyl)-1,3,5,7-tetramethyl-BODIPY]	17 nm	19,420 M^−1 cm ^−1	530 nm	547 nm	0.17 ^b	22 nm	21,000 M^−1 cm ^−1	555 nm	577 nm	0.24	over 200 fold	220 mV	130 mV	70 mV	−0.87 V	−1.16 V	80 µM	80 µM	–	–	Φf (relative fluorescence quantum yield) ([1]; H2O, listed as 2catPyCl2 (I^−)): 0.24 ^b; E1/2ox (Cyclic voltammetry; vs. Fc^+/Fc, value at 10 V/s, acetonitrile, 0.25 M NBu4PF6): +1.10 ^b V
CC1=CC(C)=[N+]2C1=C(c1ccc[n+](C)c1)c1c(C)cc(C)n1[B-]2(F)F [3catPy, 1,3,5,7-Tetramethyl-8-(N-methyl-3-pyridyl)-BODIPY Iodide]	22 nm	65,460 M^−1 cm ^−1	510 nm	532 nm	0.006	20 nm	37,320 M^−1 cm ^−1	510 nm	530 nm	0.005 ^b	–	–	–	–	−1.26 V	−1.54 V	> 200 µM	> 100 µM	8 nm	+0.89 V	Φf (relative fluorescence quantum yield) ([1]; CH3CN, listed as 3catPy (I^−)): 0.006 ^b; first reduction, more negative than the two-electron reduction in 4catPy (Cyclic voltammetry): 200 mV; second reduction, more negative than the two-electron reduction in 4catPy (Cyclic voltammetry): 480 mV
CC1=C(Cl)C(C)=[N+]2C1=C(c1ccc[n+](C)c1)c1c(C)c(Cl)c(C)n1[B-]2(F)F [3catPyCl2, 2,6-Dichlo-8-(N-methyl-3-pyridyl)-1,3,5,7-tetramethyl-BODIPY]	20 nm	43,160 M^−1 cm ^−1	540 nm	560 nm	0.23 ^b	24 nm	35,180 M^−1 cm ^−1	540 nm	564 nm	0.47	100 fold	240 mV	120 mV	160 mV	−1.02 V	−1.42 V	120 µM	> 100 µM	–	–	Φf (relative fluorescence quantum yield) ([1]; H2O, listed as 3catPyCl2 (I^−)): 0.47 ^b; fluorescence enhancement relative to the non-chlorinated pyridinium BODIPY ([1]; acetonitrile): 38 fold; E1/2ox (oxidation peak potential only, irreversible wave) (Cyclic voltammetry; [5]): +1.10 ^c V
CC1=CC(C)=[N+]2C1=C(c1cc[n+](C)cc1)c1c(C)cc(C)n1[B-]2(F)F [4catPy]	–	–	–	–	–	–	–	–	–	–	–	–	–	–	–	–	> 200 µM	> 100 µM	8 nm	+0.89 V	E1/2red, two-electron reduction to doubly reduced state (Cyclic voltammetry; [5]): −1.06 ^e V; Stokes Shift ([4]; CH3CN): 87 nm; Φf (fluorescence quantum yield) ([4]; CH3CN): 0.019; ε (molar extinction coefficient) ([4]; CH3CN): 26,000 M^−1 cm ^−1; λabs ([4]; CH3CN): 509 nm; λem ([4]; CH3CN): 596 nm; Stokes Shift ([4]; H2O): 91 nm; Φf (fluorescence quantum yield) ([4]; H2O): 0.004; ε (molar extinction coefficient) ([4]; H2O): 31,600 M^−1 cm ^−1; λabs ([4]; H2O): 509 nm; λem ([4]; H2O): 600 nm
